Columns and labels:
velvetleaf = experiment: Test C pre-/postemergence herbicide test; assay type: in vivo, Abutilon theophrasti
How it was run: (§1)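 Greenhouse pots; formulation = non-phytotoxic solvent mix + surfactant. PRE onto seeds in loam:sand; POST at 1–4 leaves (2–18 cm) in peat moss/vermiculite medium. Read-out: visual % control vs untreated, day 13–15.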

crabgrass, large = experiment: Test C pre-/postemergence herbicide test; assay type: in vivo, Digitaria sanguinalis
How it was run: as §1

oat, wild = experiment: Test C pre-/postemergence herbicide test; assay type: in vivo, Avena fatua
How it was run: as §1

barnyardgrass = experiment: Test A pre-/postemergence herbicide test; assay type: in vivo, Echinochloa crus-galli
How it was run: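 Greenhouse pot test with pre- and postemergence application of surfactant-containing solvent formulations. Postemergence plants were 2–10 cm, one- to two-leaf stage. Response scored visually after ~10 days, 0 (no effect) to 100 (complete control).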

blackgrass = experiment: Test C pre-/postemergence herbicide test; assay type: in vivo, Alopecurus myosuroides
How it was run: as §1

wheat (winter wheat) = experiment: Test C pre-/postemergence herbicide test; assay type: in vivo, Triticum aestivum
How it was run: as §1

soybean = experiment: Test C pre-/postemergence herbicide test; assay type: in vivo, Glycine max
How it was run: as §1

foxtail, giant = experiment: Test C pre-/postemergence herbicide test; assay type: in vivo, Setaria faberii
How it was run: as §1

galium = experiment: Test C pre-/postemergence herbicide test; assay type: in vivo, Galium aparine; conditions: Preemergence
How it was run: as §1

pigweed = experiment: Test C pre-/postemergence herbicide test; assay type: in vivo, Amaranthus retroflexus
How it was run: as §1

[1] = Postemergence, 31 g ai/ha, scale 0 (no effect) to 100 (complete control)
[2] = Postemergence, 62 g ai/ha, scale 0 to 100 (0 no effect, 100 complete control)
[3] = Postemergence, 125 g ai/ha, scale 0 to 100 (0 no effect, 100 complete control)
[4] = Postemergence, 250 g ai/ha, scale 0 to 100 (0 no effect, 100 complete control)
[5] = Preemergence, 62 g ai/ha, scale 0 to 100
[6] = Preemergence, 125 g ai/ha, scale 0 to 100 (0 no effect, 100 complete control)
[7] = Preemergence, 31 g ai/ha, scale 0 to 100 (0 no effect, 100 complete control)
[8] = Preemergence, 250 g ai/ha, scale 0 to 100 (0 no effect, 100 complete control)

O=C1NCC(c2ccc(Cl)c(F)c2)C1C(=O)Nc1cccc(F)c1F (centres unmarked) [Compound 52]
Plant response rating, Velvetleaf (velvetleaf; [1]): 10 | Plant response rating, Velvetleaf (velvetleaf; [2]): 20 | Plant response rating, Velvetleaf (velvetleaf; [3]): 20 | Plant response rating, Velvetleaf (velvetleaf; [4]): 35 | Plant response rating, Velvetleaf (velvetleaf; [5]): 5 | Plant response rating, Velvetleaf (velvetleaf; [6]): 5 | Plant response rating, Crabgrass, Large (crabgrass, large; [1]): 50 | Plant response rating, Crabgrass, Large (crabgrass, large; [2]): 55 | Plant response rating, Crabgrass, Large (crabgrass, large; [3]): 55 | Plant response rating, Crabgrass, Large (crabgrass, large; [4]): 75 | Plant response rating, Crabgrass, Large (crabgrass, large; [5]): 90 | Plant response rating, Crabgrass, Large (crabgrass, large; [6]): 90 | Crabgrass, Large plant response rating (crabgrass, large; [7]): 80 | Plant response rating, Crabgrass, Large (crabgrass, large; [8]): 95 | Plant response rating, Oat, Wild (oat, wild; [1]): 0 | Plant response rating, Oat, Wild (oat, wild; [2]): 0 | Plant response rating, Oat, Wild (oat, wild; [3]): 0 | Plant response rating, Oat, Wild (oat, wild; [4]): 0 | Plant response rating, Oat, Wild (oat, wild; [5]): 0 | Plant response rating, Oat, Wild (oat, wild; [6]): 0 | Plant response rating, Barnyardgrass (barnyardgrass; Postemergence, 125 g ai/ha, 0 to 100 scale, 0 no effect, 100 complete control): 80 | Plant response rating, Barnyardgrass (barnyardgrass; Postemergence, 500 g ai/ha, 0 to 100 scale (0 no effect, 100 complete control)): 80 | Barnyardgrass plant response rating (barnyardgrass; Preemergence, 125 g ai/ha, visual rating on 0 to 100 scale (0 no effect, 100 complete control)): 80 | Plant response rating, Barnyardgrass (barnyardgrass; preemergence, 500 g ai/ha, 0 to 100 scale (0 no effect, 100 complete control)): 90 | Plant response rating, Blackgrass (blackgrass; [1]): 0 | Plant response rating, Blackgrass (blackgrass; [2]): 0 | Plant response rating, Blackgrass (blackgrass; [3]): 0 | Plant response rating, Blackgrass (blackgrass; [4]): 0 | Plant response rating, Blackgrass (blackgrass; [5]): 0 | Plant response rating, Blackgrass (blackgrass; [6]): 0 | Blackgrass plant response rating (blackgrass; [7]): 0 | Plant response rating, Blackgrass (blackgrass; [8]): 0 | Plant response rating, Wheat (wheat (winter wheat); [1]): 0 | Plant response rating, Wheat (wheat (winter wheat); [2]): 0 | Plant response rating, Wheat (wheat (winter wheat); [3]): 0 | Plant response rating, Wheat (wheat (winter wheat); [4]): 0 | Plant response rating, Wheat (wheat (winter wheat); [5]): 0 | Plant response rating, Wheat (wheat (winter wheat); [6]): 10 | Plant response rating, Soybean (soybean; [1]): 0 | Plant response rating, Soybean (soybean; [2]): 0 | Plant response rating, Soybean (soybean; [3]): 5 | Plant response rating, Soybean (soybean; [4]): 5 | Plant response rating, Soybean (soybean; [5]): 10 | Plant response rating, Soybean (soybean; [6]): 15 | Plant response rating, Foxtail, Giant (foxtail, giant; [1]): 0 | Plant response rating, Foxtail, Giant (foxtail, giant; [2]): 0 | Plant response rating, Foxtail, Giant (foxtail, giant; [3]): 0 | Plant response rating, Foxtail, Giant (foxtail, giant; [4]): 25 | Plant response rating, Foxtail, Giant (foxtail, giant; [5]): 80 | Plant response rating, Foxtail, Giant (foxtail, giant; [6]): 80 | Foxtail, Giant plant response rating (foxtail, giant; [7]): 55 | Plant response rating, Foxtail, Giant (foxtail, giant; [8]): 85 | Plant response rating, Galium (galium; 62 g ai/ha, scale 0 to 100): 0 | Plant response rating, Galium (galium; 125 g ai/ha, scale 0 to 100 (0 no effect, 100 complete control)): 90 | Galium plant response rating (galium; 31 g ai/ha, scale 0 to 100 (0 no effect, 100 complete control)): 0 | Plant response rating, Galium (galium; 250 g ai/ha, scale 0 to 100 (0 no effect, 100 complete control)): 90 | Plant response rating, Pigweed (pigweed; [1]): 25 | Plant response rating, Pigweed (pigweed; [2]): 40 | Plant response rating, Pigweed (pigweed; [3]): 50 | Plant response rating, Pigweed (pigweed; [4]): 60 | Plant response rating, Pigweed (pigweed; [5]): 20 | Plant response rating, Pigweed (pigweed; [6]): 55
